The record followed here is publication PMC8225045, “Chemical Synthesis and Structure-Activity Relationship Study Yield Desotamide a Analogues with Improved Antibacterial Activity” (Marine Drugs, 2021).

Converted amounts (≈) assume the structure as drawn. Where two headings read alike, the source gives them in different places. Non-standard residues stand in square brackets, D forms with d. Residues, ends and D or L forms follow the SMILES beside them. aIle = CC[C@@H](C)[C@H](N)C(=O)O

Test [1] relates to Klebsiella pneumoniae 15580. Particulars: 15580. The procedure: (§1) All the synthesized cyclopeptides (7–19) and the desotamide A (1) isolated from S. scopuliridis SCSIO ZJ46 were evaluated for antibacterial activities against a series of Gram-positive pathogens including […] Staphylococcus aureus ATCC29213, Bacillus subtilis BS01, Micrococcus luteus ML01, Enterococcus faecalis ATCC29212; 3 drug-resistant poultry pathogens Staphylococcus simulans LJH13, Enterococcus gallinarum LJH11, Staphylococcus haemolyticus LJH9; 4 clinical methicillin-resistant Staphylococcus aureus (MRSA) shhs-E1, MRSA 16339, MRSA 745524, MRSA 16162. Their antibacterial activities against the […] pathogens Escherichia coli ATCC 13,124 and clinical drug-resistant Klebsiella pneumonia 15580 were also assayed.
(§2) Ampicillin, vancomycin and polymyxin were used as control. The maximum test concentrations for all the compounds were 128 μg/mL.

Another test deals with Gram-positive pathogens. Particulars: for Gram positive antibacterial activity for desotamides (in words): Figure 2. As to the method:
as §1, §2

The subject of test [2] is methicillin-resistant Staphylococcus aureus (MRSA) shhsE1. The test is described as follows: microbe, parasite or virus in culture. As to the method: as §1, §2
Test [3] deals with Staphylococcus aureus ATCC 29213. The test is described as follows: microbe, parasite or virus in culture. The procedure: as §1, §2
A further test deals with MRSA 16162. The test is described as follows: microbe, parasite or virus in culture. As to the method: as §1, §2
The next test concerns MRSA 745524. The test is described as follows: microbe, parasite or virus in culture. The procedure:
as §1, §2

Test [4] has as its system Enterococcus gallinarum LJH11. In words: microbe, parasite or virus in culture. The procedure:
as §1, §2

For the next test, the system named is Micrococcus luteus ML01. The test is described as follows: microbe, parasite or virus in culture. Particulars: ML01. The procedure:
as §1, §2

The test system of test [5] is Staphylococcus simulans LJH13. The test is described as follows: microbe, parasite or virus in culture. As to the method:
as §1, §2

Test [6] concerns Enterococcus faecalis ATCC 29212. In words: microbe, parasite or virus in culture. The procedure:
as §1, §2

A further test concerns Bacillus subtilis BS01. In words: microbe, parasite or virus in culture. To be noted: BS01. As to the method:
as §1, §2

Test [7] concerns Staphylococcus haemolyticus LJH9. In words: microbe, parasite or virus in culture. The procedure: as §1, §2
The subject of a further test is MRSA 16339. The test is described as follows: microbe, parasite or virus in culture. As to the method:
as §1, §2

[8] abbreviates: clinical MRSA shhsE1, two-fold serial dilution, Mueller-Hinton broth, 96-well plate, CLSI-based, maximum test concentration 128 μg/mL.
Setting [9] is: Staphylococcus aureus, ATCC29213.
[10] abbreviates: Enterococcus gallinarum, GALLINARUM
[11] abbreviates: Enterococcus faecalis, ATCC29212.
[12] abbreviates: Staphylococcus haemolyticus, LJH9.

As to `CC(C)C[C@@H]1NC(=O)[C@H](CC(N)=O)NC(=O)CNC(=O)[C@H](Cc2c[nH]c3ccccc23)NC(=O)[C@H](CC(C)C)NC(=O)[C@@H](CC(C)C)NC1=O` [Compound 16, Desotamide A7] (cyclo(NL[dL]LWG)), the MIC (in [1]; in test [2] (setting [8]); in test [3] (ATCC 29213); in the test on MRSA 16162 (16162); in the test with MRSA 745524 (745524); in test [4]) was greater than 128 µg/mL each time. Moreover, the MIC (in the test with Micrococcus luteus ML01; in test [5]; in test [6] (ATCC 29212); against Bacillus subtilis BS01; in test [7]; against MRSA 16339 (16339)) was greater than 128 µg/mL throughout. For the same molecule, the “MIC values against Gram-positive pathogens (summary over the panel)” value in the test with Gram-positive pathogens (series of Gram-positive pathogens including MRSA, summary of Table 1) is greater than 128 µg/mL. Besides, the “Gram positive antibacterial activity for desotamides (in words)” value in the test with Gram-positive pathogens (summary) is “Inactive”.
`CC(C)C[C@@H]1NC(=O)[C@H](Cc2c[nH]c3ccccc23)NC(=O)[C@@H](CCCCN)NC(=O)[C@H](CC(N)=O)NC(=O)[C@H](CC(C)C)NC(=O)[C@@H](CC(C)C)NC1=O` [Compound 17, Desotamide A8] (cyclo([dK]WL[dL]LN)): the MIC was greater than 128 µg/mL in test [1]; 64 µg/mL (≈ 83.3 µM) in test [2] (setting [8]); 32 µg/mL (≈ 41.7 µM) in test [3] (ATCC 29213); 64 µg/mL (≈ 83.3 µM) in the test with MRSA 16162 (16162); 32 µg/mL (≈ 41.7 µM) against MRSA 745524 (745524); greater than 128 µg/mL in test [4]. Further, the MIC came to 16 µg/mL (≈ 20.8 µM) against Micrococcus luteus ML01; 32 µg/mL (≈ 41.7 µM) in test [5]; 128 µg/mL (≈ 167 µM) in test [6] (ATCC 29212); 32 µg/mL (≈ 41.7 µM) against Bacillus subtilis BS01; 64 µg/mL (≈ 83.3 µM) in test [7]; 64 µg/mL (≈ 83.3 µM) in the test with MRSA 16339 (16339). Further, in the test on Gram-positive pathogens (summary), the “Gram positive antibacterial activity for desotamides (in words)” value was “Slightly less active than 1”.
As for `CC[C@@H](C)[C@@H]1NC(=O)[C@H](CC(N)=O)NC(=O)[C@@H](CCCNC(=N)N)NC(=O)[C@H](Cc2c[nH]c3ccccc23)NC(=O)[C@H](CC(C)C)NC(=O)[C@@H](CC(C)C)NC1=O` [Compound 10, Desotamide A1] (cyclo(LW[dR]N[aIle][dL])), the MIC (in test [1]; in [2] (methicillin-resistant shhsE1); in test [3] (ATCC 29213); with MRSA 16162 (16162); with MRSA 745524 (745524); in [4]) was greater than 128 µg/mL throughout. For the same molecule, the MIC in the test with Micrococcus luteus ML01 is 64 µg/mL (≈ 80.4 µM); in test [5] it was greater than 128 µg/mL; in [6] (ATCC 29212) it was greater than 128 µg/mL; in the test on Bacillus subtilis BS01, greater than 128 µg/mL; in [7], greater than 128 µg/mL; against MRSA 16339 (16339) it was greater than 128 µg/mL. The “Gram positive antibacterial activity for desotamides (in words)” value in the test with Gram-positive pathogens (summary) was “Inactive”.
On to `CC[C@@H](C)[C@@H]1NC(=O)[C@H](CC(N)=O)NC(=O)[C@@H](CCCCN)NC(=O)[C@H](Cc2c[nH]c3ccccc23)NC(=O)[C@H](CC(C)C)NC(=O)[C@@H](CC(C)C)NC1=O` [Compound 11, Desotamide A2] (cyclo(LW[dK]N[aIle][dL])), for which the MIC (in test [1]; in [2] (methicillin-resistant shhsE1); in test [3] (ATCC 29213); against MRSA 16162 (16162); with MRSA 745524 (745524); in [4]) was greater than 128 µg/mL in each case. Also, the MIC (against Micrococcus luteus ML01; in test [5]; in test [6] (ATCC 29212); with Bacillus subtilis BS01; in [7]; against MRSA 16339 (16339)) was greater than 128 µg/mL in each case. Further, in the test on Gram-positive pathogens (summary), the “Gram positive antibacterial activity for desotamides (in words)” value is given as “Inactive”.
Turning to `CN[C@H](CC(C)C)C(=O)N[C@H]1C(=O)N[C@@H](CC(N)=O)C(=O)N[C@H]2C(=O)N[C@H]3C(=O)N[C@H](C(=O)N[C@H](C(=O)O)c4cc(O)cc(O)c4-c4cc3ccc4O)[C@H](O)c3ccc(c(Cl)c3)Oc3cc2cc(c3O[C@@H]2O[C@H](CO)[C@@H](O)[C@H](O)[C@H]2O[C@H]2C[C@](C)(N)[C@H](O)[C@H](C)O2)Oc2ccc(cc2Cl)[C@H]1O` [Van, vancomycin, reference compound], the MIC in [2] (Staphylococcus aureus, MRSA) was 0.5 µg/mL (≈ 0.345 µM); in test [3] (setting [9]), 0.5 µg/mL (≈ 0.345 µM); in the test on MRSA 16162 (Staphylococcus aureus, MRSA), 0.5 µg/mL (≈ 0.345 µM); in the test on MRSA 745524 (Staphylococcus aureus, MRSA) it was 0.5 µg/mL (≈ 0.345 µM); in test [4] (setting [10]), 8 µg/mL (≈ 5.52 µM); in the test on Micrococcus luteus ML01 (Micrococcus luteus), 0.25 µg/mL (≈ 0.173 µM). Also, the MIC in test [5] (Staphylococcus simulans, LJH13) stood at 0.25 µg/mL (≈ 0.173 µM); in test [6] (setting [11]), 4 µg/mL (≈ 2.76 µM); against Bacillus subtilis BS01 (Bacillus subtilis) it was 0.125 µg/mL (≈ 0.0863 µM); in test [7] (setting [12]), 2 µg/mL (≈ 1.38 µM); with MRSA 16339 (Staphylococcus aureus, MRSA), 0.25 µg/mL (≈ 0.173 µM).
Regarding `CC1(C)S[C@@H]2[C@H](NC(=O)[C@H](N)c3ccccc3)C(=O)N2[C@H]1C(=O)O` [Amp, ampicillin, reference compound], the MIC in [2] (Staphylococcus aureus, MRSA) was 64 µg/mL (≈ 183 µM); in test [3] (setting [9]), 1 µg/mL (≈ 2.86 µM); with MRSA 16162 (Staphylococcus aureus, MRSA) it was 32 µg/mL (≈ 91.6 µM); in the test with MRSA 745524 (Staphylococcus aureus, MRSA), 16 µg/mL (≈ 45.8 µM); in test [4] (setting [10]), 2 µg/mL (≈ 5.72 µM); in the test on Micrococcus luteus ML01 (Micrococcus luteus) it was 0.25 µg/mL (≈ 0.715 µM). Besides, the MIC was 0.25 µg/mL (≈ 0.715 µM) in test [5] (Staphylococcus simulans, LJH13); 4 µg/mL (≈ 11.4 µM) in test [6] (setting [11]); less than 0.0625 µg/mL with Bacillus subtilis BS01 (Bacillus subtilis); 16 µg/mL (≈ 45.8 µM) in test [7] (setting [12]); 64 µg/mL (≈ 183 µM) against MRSA 16339 (Staphylococcus aureus, MRSA).
For the molecule `CC(C)C[C@@H]1NC(=O)[C@H](Cc2c[nH]c3ccccc23)NC(=O)[C@@H](CCCCN)NC(=O)[C@H](CC(N)=O)NC(=O)[C@H](C(C)C)NC(=O)[C@@H](CC(C)C)NC1=O` [Compound 9, Wollamide B2] (cyclo([dK]WL[dL]VN)), the MIC in test [1] is greater than 128 µg/mL; in test [2] (setting [8]), 32 µg/mL (≈ 42.4 µM); in test [3] (ATCC 29213), 32 µg/mL (≈ 42.4 µM); in the test on MRSA 16162 (16162) it was 32 µg/mL (≈ 42.4 µM); with MRSA 745524 (745524), 32 µg/mL (≈ 42.4 µM); in test [4] (Enterococcus gallinarum LJH11, drug-resistant poultry pathogen, two-fold serial dilution, Mueller-Hinton broth, 96-well plate, CLSI-based, maximum test concentration 128 μg/mL), 128 µg/mL (≈ 170 µM). Also, the MIC with Micrococcus luteus ML01 amounted to 16 µg/mL (≈ 21.2 µM); in [5], 16 µg/mL (≈ 21.2 µM); in test [6] (ATCC 29212) it was 64 µg/mL (≈ 84.9 µM); in the test on Bacillus subtilis BS01, 16 µg/mL (≈ 21.2 µM); in test [7], 32 µg/mL (≈ 42.4 µM); in the test with MRSA 16339 (16339), 32 µg/mL (≈ 42.4 µM). Moreover, the “fold increase of anti-Gram-positive activity compared to wollamide B (7)” value in the test on Gram-positive pathogens (Gram-positive bacteria) is 2–4 folds. The “Gram positive antibacterial activity for wollamides (in words)” value with Gram-positive pathogens (summary, Figure 3) is 2–4-Fold more active than 7.
